Laboratory results taken from ChEMBL document CHEMBL4725439, “Direct Comparison of (N)-Methanocarba and Ribose-Containing 2-Arylalkynyladenosine Derivatives as A Receptor Agonists” (ACS Med Chem Lett, 2020).
Each block holds one molecule with its values, some of them ahead of it. The source made the active and inactive calls. The rule behind the calls is not given here.

Columns and labels:
Adenosine receptor A3 [1] = biological target: T1, Adenosine receptor A3 (Homo sapiens, UniProt P0DMS8); test: Binding affinity to human A3AR assessed as inhibitor constant
T1 sequence (P0DMS8 whole entry): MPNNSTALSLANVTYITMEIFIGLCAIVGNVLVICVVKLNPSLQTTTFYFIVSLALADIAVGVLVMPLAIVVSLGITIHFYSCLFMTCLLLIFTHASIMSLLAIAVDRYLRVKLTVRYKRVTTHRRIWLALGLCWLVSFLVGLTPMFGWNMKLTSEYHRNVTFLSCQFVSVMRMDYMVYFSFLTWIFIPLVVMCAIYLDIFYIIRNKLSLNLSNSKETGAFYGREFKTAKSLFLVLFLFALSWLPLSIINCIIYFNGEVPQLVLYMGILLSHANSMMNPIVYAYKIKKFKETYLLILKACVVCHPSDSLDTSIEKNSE

[2] = biological target: T2, Adenosine receptor A1 (Homo sapiens) (UniProt P30542); test: Displacement of [3H]N6-R-phenylisopropyladenosine from human A1AR expressed in HEK293 cells at 10 uM by radio ligand binding assay relative to control; type: cell-based
T2 sequence (whole entry): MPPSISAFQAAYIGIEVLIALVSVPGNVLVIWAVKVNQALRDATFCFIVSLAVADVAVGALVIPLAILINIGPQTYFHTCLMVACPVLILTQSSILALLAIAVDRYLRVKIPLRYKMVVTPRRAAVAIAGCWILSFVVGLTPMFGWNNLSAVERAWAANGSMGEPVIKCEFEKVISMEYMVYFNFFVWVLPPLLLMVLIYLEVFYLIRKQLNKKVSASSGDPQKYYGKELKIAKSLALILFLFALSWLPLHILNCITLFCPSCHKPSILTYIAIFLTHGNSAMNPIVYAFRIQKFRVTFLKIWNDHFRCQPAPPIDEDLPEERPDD

[3] = biological target: T3, Adenosine receptor A1 (Mus musculus) (UniProt Q60612); test: Displacement of [125I]AB-MECA from recombinant mouse A1AR expressed in HEK293 cells at 10 uM by radio ligand binding assay relative to control; type: cell-based; conditions: filed as agonist
T3 sequence (whole entry): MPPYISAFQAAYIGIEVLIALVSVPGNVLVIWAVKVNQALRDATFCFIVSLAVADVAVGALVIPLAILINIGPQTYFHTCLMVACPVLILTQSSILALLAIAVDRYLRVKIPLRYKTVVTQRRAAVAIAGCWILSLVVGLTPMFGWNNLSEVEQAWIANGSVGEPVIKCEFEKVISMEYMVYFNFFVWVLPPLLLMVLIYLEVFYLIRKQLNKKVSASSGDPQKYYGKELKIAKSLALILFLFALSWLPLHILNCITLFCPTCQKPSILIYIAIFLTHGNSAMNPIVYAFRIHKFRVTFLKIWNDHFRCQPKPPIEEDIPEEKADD

Adenosine receptor A2a [4] = biological target: T4, Adenosine receptor A2a (Homo sapiens, UniProt P29274); test: Displacement of [3H]2-[p-(2-carboxyethyl)phenyl-ethylamino]-5'-N-ethylcarboxamidoadenosine from human A2A receptor expressed in HEK293 cells at 10 uM by radio ligand binding assay relative to control; type: cell-based
Adenosine receptor A3 [5] = biological target: T1, Adenosine receptor A3; test: Displacement of [125I]N6-(4-amino-3-iodobenzyl)adenosine-5'-N-methyluronamide from human […] expressed in CHO cell membranes assessed as inhibitor constant by radio ligand binding assay
Adenosine receptor A3 [6] = biological target: T5, Adenosine receptor A3 (Mus musculus, UniProt Q61618); test: Displacement of [125I]AB-MECA from mouse […] expressed in HEK293 cell membranes assessed as inhibitor constant by radio ligand binding assay
T5 sequence (Q61618 whole entry): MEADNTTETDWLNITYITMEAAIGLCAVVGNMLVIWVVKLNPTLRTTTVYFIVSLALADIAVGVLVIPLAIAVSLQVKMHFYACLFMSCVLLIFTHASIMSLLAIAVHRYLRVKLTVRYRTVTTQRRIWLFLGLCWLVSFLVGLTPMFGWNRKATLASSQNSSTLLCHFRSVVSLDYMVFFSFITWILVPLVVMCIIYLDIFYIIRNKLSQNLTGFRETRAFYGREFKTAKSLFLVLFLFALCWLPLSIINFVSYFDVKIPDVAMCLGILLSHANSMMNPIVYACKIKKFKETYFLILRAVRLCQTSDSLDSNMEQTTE

[7] = biological target: Beta-3 adrenergic receptor (Homo sapiens) (UniProt P13945); test: Displacement of [125I]-Pindolol from human beta3 adrenergic receptor expressed in expressed in HEK Flp-In cells measured after 90 mins by microbeta scintillation counting method; type: cell-based
[8] = biological target: Adenosine receptor A2a (Mus musculus) (UniProt Q60613); test: Displacement of [3H]CGS21680 from mouse A2A receptor expressed in HEK293 cells at 10 uM by radio ligand binding assay relative to control; type: cell-based
Adenosine receptor A1 [9] = biological target: T6, Adenosine receptor A1 (Mus musculus, UniProt Q60612); test: Displacement of [125I]AB-MECA from recombinant mouse A1AR expressed in HEK293 cells assessed as inhibitory constant by radio ligand binding assay; type: cell-based
T6 sequence (Q60612 whole entry): T3 sequence (whole entry)

Adenosine receptor A2a [10] = biological target: T4, Adenosine receptor A2a; test: Displacement of [3H]2-[p-(2-carboxyethyl)phenyl-ethylamino]-5'-N-ethylcarboxamidoadenosine from human A2A receptor expressed in HEK293 cells assessed as inhibitor constant by radio ligand binding assay; type: cell-based
[11] = Stability in Sprague-Dawley rat plasma; type: ADME, cell-free
[12] = Stability in Sprague-Dawley rat liver microsomes; type: ADME, Microsome
HepG2 = test: Cytotoxicity against human HepG2 cells; type: cell-based
[13] = Oral bioavailability in Sprague-Dawley rat; type: ADME, organism-based; conditions: in vivo
[14] = biological target: 5-hydroxytryptamine receptor 2B (Homo sapiens, UniProt P41595); test: Displacement of [3H]-LSD from recombinant human 5HT2B receptor expressed in stable HEK cells after 90 mins by microbeta scintillation counting method; type: cell-based
[15] = biological target: Sodium-dependent dopamine transporter (Homo sapiens, UniProt Q01959); test: Displacement of [3H]-Win35428 from human recombinant DAT receptor expressed in stable HEK cells after 90 mins by microbeta scintillation counting method; type: cell-based
Adenosine receptor A1 [16] = biological target: T7, Adenosine receptor A1 (Homo sapiens, UniProt P30542); test: Displacement of [3H]N6-R-phenylisopropyladenosine from human A1AR receptor expressed in HEK293 cells assessed as inhibitory constant by radio ligand binding assay; type: cell-based
T7 sequence (P30542 whole entry): T2 sequence (whole entry)

[17] = biological target: T8, Adenosine receptor A2b (Homo sapiens) (UniProt P29275); test: Agonist activity at Gs-coupled human A2B […] receptor expressed in CHO at 10 uM by cAMP based assay; type: functional, cell-based
T8 sequence (whole entry): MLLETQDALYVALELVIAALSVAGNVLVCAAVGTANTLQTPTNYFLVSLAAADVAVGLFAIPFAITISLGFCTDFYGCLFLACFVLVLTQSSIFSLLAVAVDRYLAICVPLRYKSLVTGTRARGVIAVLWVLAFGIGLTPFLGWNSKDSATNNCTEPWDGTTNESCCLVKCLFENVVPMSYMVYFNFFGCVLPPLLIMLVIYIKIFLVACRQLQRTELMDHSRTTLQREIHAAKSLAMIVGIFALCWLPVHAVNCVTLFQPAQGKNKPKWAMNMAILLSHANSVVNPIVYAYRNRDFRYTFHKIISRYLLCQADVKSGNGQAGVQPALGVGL

Chain of Beta-3 adrenergic receptor (Homo sapiens) (P13945 whole entry, looked up): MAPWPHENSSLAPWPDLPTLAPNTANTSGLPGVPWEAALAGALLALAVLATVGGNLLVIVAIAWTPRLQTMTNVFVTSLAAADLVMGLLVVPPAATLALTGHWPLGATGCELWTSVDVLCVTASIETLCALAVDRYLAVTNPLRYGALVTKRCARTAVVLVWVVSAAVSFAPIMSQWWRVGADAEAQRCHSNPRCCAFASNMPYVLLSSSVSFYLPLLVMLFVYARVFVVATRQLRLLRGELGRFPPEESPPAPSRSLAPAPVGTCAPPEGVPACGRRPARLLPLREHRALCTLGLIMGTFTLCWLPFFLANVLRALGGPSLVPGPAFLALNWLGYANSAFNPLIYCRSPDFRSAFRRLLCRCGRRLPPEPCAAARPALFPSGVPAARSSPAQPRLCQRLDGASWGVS
T4 sequence (P29274 whole entry): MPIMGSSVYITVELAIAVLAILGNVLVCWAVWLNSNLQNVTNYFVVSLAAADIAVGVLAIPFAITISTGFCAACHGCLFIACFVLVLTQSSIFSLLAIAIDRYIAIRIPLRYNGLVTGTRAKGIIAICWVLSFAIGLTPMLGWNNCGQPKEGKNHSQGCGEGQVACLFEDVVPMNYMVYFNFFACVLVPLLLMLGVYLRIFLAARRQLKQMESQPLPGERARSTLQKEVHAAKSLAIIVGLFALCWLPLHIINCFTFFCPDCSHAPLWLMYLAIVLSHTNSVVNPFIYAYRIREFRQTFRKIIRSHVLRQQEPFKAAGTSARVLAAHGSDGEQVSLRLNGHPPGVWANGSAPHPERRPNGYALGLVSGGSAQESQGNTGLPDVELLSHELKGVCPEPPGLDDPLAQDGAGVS
Chain of Adenosine receptor A2a (Mus musculus) (Q60613 whole entry): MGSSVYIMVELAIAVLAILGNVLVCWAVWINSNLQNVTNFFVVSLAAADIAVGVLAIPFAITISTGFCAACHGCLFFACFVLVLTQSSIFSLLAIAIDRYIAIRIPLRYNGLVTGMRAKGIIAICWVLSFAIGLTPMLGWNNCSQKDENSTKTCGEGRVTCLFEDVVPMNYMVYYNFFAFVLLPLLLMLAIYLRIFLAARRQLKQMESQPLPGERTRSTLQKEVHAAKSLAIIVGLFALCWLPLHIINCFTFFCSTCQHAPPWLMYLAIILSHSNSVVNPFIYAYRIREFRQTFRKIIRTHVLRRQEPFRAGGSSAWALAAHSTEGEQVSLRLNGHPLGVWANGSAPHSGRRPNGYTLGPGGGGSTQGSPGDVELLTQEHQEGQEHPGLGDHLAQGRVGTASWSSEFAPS
Chain of 5-hydroxytryptamine receptor 2B (P41595 whole entry): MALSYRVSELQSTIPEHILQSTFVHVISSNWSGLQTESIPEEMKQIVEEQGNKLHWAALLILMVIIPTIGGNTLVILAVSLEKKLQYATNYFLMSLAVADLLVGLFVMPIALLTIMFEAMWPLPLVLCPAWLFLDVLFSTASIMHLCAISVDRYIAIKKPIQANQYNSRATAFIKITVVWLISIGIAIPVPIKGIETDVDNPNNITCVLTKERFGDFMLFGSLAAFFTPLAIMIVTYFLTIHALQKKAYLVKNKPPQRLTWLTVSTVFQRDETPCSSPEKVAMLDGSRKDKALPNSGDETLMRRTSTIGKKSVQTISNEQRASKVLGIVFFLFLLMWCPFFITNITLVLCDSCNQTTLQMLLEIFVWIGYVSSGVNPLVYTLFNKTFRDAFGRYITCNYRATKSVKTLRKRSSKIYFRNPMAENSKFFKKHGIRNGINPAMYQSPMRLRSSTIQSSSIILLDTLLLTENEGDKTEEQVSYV
Chain of Sodium-dependent dopamine transporter (Q01959 whole entry): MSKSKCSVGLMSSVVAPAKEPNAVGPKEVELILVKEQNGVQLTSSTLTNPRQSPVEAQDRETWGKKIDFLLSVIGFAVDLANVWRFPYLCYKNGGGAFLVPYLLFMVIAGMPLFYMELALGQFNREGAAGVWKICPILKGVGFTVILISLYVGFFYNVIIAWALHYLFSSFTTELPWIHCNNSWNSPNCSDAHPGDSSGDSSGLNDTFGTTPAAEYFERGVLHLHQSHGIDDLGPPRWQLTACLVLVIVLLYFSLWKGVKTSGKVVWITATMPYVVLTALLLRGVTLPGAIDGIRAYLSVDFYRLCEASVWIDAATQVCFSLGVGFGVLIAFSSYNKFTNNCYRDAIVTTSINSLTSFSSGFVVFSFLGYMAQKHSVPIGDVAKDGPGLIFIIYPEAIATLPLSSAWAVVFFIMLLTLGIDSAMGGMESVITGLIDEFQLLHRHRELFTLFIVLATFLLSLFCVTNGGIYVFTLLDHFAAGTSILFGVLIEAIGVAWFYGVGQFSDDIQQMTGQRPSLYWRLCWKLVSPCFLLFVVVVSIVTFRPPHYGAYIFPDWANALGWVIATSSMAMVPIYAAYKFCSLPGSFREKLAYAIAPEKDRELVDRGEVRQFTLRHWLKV

SMILES: CCNC(=O)[C@H]1O[C@@H](n2cnc3c(NC)nc(C#C[C@@H](O)c4ccccc4)nc32)[C@H](O)[C@@H]1O
Ki (Adenosine receptor A3 [1]): 0.75 nM

SMILES: CNC(=O)[C@@]12C[C@@H]1[C@@H](n1cnc3c(NC)nc(C#Cc4ccc(F)s4)nc31)[C@H](O)[C@@H]2O
inhibition [2]: 33%
Ki (Adenosine receptor A1 [9]): 3260 nM
Ki (Adenosine receptor A2a [10]): 4620 nM
Ki (Adenosine receptor A3 [5]): 0.28 nM
Ki (Adenosine receptor A3 [6]): 85 nM
Stabilty [11]: Stable
Stabilty [12]: Stable
Activity (HepG2): Non-Toxic
bioavailability [13]: 14%
inhibition [8]: 5%

SMILES: CNc1nc(C#Cc2ccc(Cl)s2)nc2c1ncn2[C@H]1[C@H](O)[C@H](O)[C@]2(C(=O)OC)C[C@H]12
inhibition [2]: 24%
inhibition (Adenosine receptor A2a [4]): 20%

SMILES: CCCNc1nc(C#Cc2ccc(Cl)s2)nc2c1ncn2[C@H]1[C@H](O)[C@H](O)[C@]2(C(=O)NC)C[C@H]12
Activity [7]: Active

SMILES: CCCNc1cc(C#Cc2ccc(Cl)s2)nc2c1ncn2[C@H]1[C@H](O)[C@H](O)[C@]2(C(=O)NC)C[C@H]12
Ki [14]: 760 nM
Ki [15]: 3940 nM

SMILES: CCNc1cc(C#Cc2ccc(Cl)s2)nc2c1ncn2[C@H]1[C@H](O)[C@H](O)[C@]2(C(=O)NC)C[C@H]12
Activity [7]: Active
Stabilty [11]: Stable
Stabilty [12]: Stable
Activity (HepG2): Non-Toxic
bioavailability [13]: 14%

SMILES: CNc1nc(C#Cc2ccc(Cl)s2)nc2c1ncn2[C@@H]1O[C@H](C(=O)OC)[C@@H](O)[C@H]1O
inhibition ([2]; filed as agonist): 46%
inhibition [3]: 53%
inhibition (Adenosine receptor A2a [4]): 8%
inhibition [8]: 12%

SMILES: CCOC(=O)[C@@]12C[C@@H]1[C@@H](n1cnc3c(NC)cc(C#Cc4ccc(Cl)s4)nc31)[C@H](O)[C@@H]2O
inhibition [2]: 17%
inhibition [3]: 54%
inhibition (Adenosine receptor A2a [4]): 18%
inhibition [8]: 5%

SMILES: CCCNc1nc(C#Cc2ccc(F)s2)nc2c1ncn2[C@H]1[C@H](O)[C@H](O)[C@]2(C(=O)NC)C[C@H]12
Ki (Adenosine receptor A1 [16]): 3980 nM
Ki (Adenosine receptor A2a [10]): 838 nM
Ki (Adenosine receptor A3 [5]): 1.13 nM
Ki (Adenosine receptor A3 [6]): 10.6 nM
Stabilty [11]: Stable
Stabilty [12]: Stable
Activity (HepG2): Non-Toxic
bioavailability [13]: 14%

SMILES: CCOC(=O)[C@@]12C[C@@H]1[C@@H](n1cnc3c(NC)nc(C#Cc4ccc(F)s4)nc31)[C@H](O)[C@@H]2O
Ki (Adenosine receptor A1 [16]): 1670 nM
Ki (Adenosine receptor A1 [9]): 864 nM
inhibition (Adenosine receptor A2a [4]): 27%
Ki (Adenosine receptor A3 [5]): 10.4 nM
Ki (Adenosine receptor A3 [6]): 625 nM

SMILES: CCNc1nc(C#Cc2ccc(Cl)s2)nc2c1ncn2[C@H]1[C@H](O)[C@H](O)[C@]2(C(=O)NC)C[C@H]12
Stabilty [11]: Stable
Stabilty [12]: Stable
Activity (HepG2): Non-Toxic
bioavailability [13]: 14%

SMILES: CNC(=O)[C@@]12C[C@@H]1[C@@H](n1cnc3c(NC)nc(C#Cc4ccc(Cl)s4)nc31)[C@H](O)[C@@H]2O
Activity [17]: inactive
Stabilty [11]: Stable
Stabilty [12]: Stable
Activity (HepG2): Non-Toxic
bioavailability [13]: 14%

Other lines, results leading:

inhibition [2]: 31%
inhibition [3]: 53%
inhibition (Adenosine receptor A2a [4]; filed as agonist): 61%
Ki (Adenosine receptor A3 [5]): 2.78 nM
Ki (Adenosine receptor A3 [6]): 25 nM
Activity [7]: Active
inhibition [8]: 4%
SMILES: CCNc1cc(C#Cc2ccc(F)s2)nc2c1ncn2[C@H]1[C@H](O)[C@H](O)[C@]2(C(=O)NC)C[C@H]12

inhibition [2]: 20%
inhibition [3]: 51%
inhibition (Adenosine receptor A2a [4]; filed as agonist): 56%
Ki (Adenosine receptor A3 [5]): 0.896 nM
Ki (Adenosine receptor A3 [6]): 37 nM
Activity [7]: Active
inhibition [8]: 6%
SMILES: CNC(=O)[C@@]12C[C@@H]1[C@@H](n1cnc3c(NC)cc(C#Cc4ccc(F)s4)nc31)[C@H](O)[C@@H]2O

Activity [7]: Active
SMILES: CNC(=O)[C@@]12C[C@@H]1[C@@H](n1cnc3c(NC)cc(C#Cc4ccc(Cl)s4)nc31)[C@H](O)[C@@H]2O

inhibition ([2]; filed as agonist): 47%
inhibition (Adenosine receptor A2a [4]): 15%
Ki (Adenosine receptor A3 [5]): 26.6 nM
Ki (Adenosine receptor A3 [6]): 1200 nM
SMILES: CNC(=O)[C@H]1O[C@@H](n2cnc3c(NC)cc(C#Cc4ccc(F)s4)nc32)[C@H](O)[C@@H]1O

Ki (Adenosine receptor A1 [16]): 1160 nM
Ki (Adenosine receptor A1 [9]): 315 nM
inhibition (Adenosine receptor A2a [4]; filed as agonist): 49%
SMILES: CCCNc1nc(C#Cc2ccc(Cl)s2)nc2c1ncn2[C@@H]1O[C@H](C(=O)NC)[C@@H](O)[C@H]1O

inhibition ([2]; filed as agonist): 58%
Ki (Adenosine receptor A1 [9]): 4170 nM
inhibition (Adenosine receptor A2a [4]): 7%
SMILES: CNC(=O)[C@H]1O[C@@H](n2cnc3c(NC)nc(C#Cc4ccc(Cl)s4)nc32)[C@H](O)[C@@H]1O

Ki (Adenosine receptor A1 [16]): 369 nM
Ki (Adenosine receptor A2a [10]): 2460 nM
Ki (Adenosine receptor A3 [5]): 8.51 nM
Ki (Adenosine receptor A3 [6]): 435 nM
SMILES: CCCNc1nc(C#Cc2ccc(F)s2)nc2c1ncn2[C@@H]1O[C@H](C(=O)NC)[C@@H](O)[C@H]1O

Ki (Adenosine receptor A1 [16]): 432 nM
inhibition (Adenosine receptor A2a [4]; filed as agonist): 45%
Ki (Adenosine receptor A3 [5]): 2.3 nM
Ki (Adenosine receptor A3 [6]): 1510 nM
SMILES: CNC(=O)[C@H]1O[C@@H](n2cnc3c(NC)nc(C#Cc4ccc(F)s4)nc32)[C@H](O)[C@@H]1O
